Experimental data: ChEMBL document CHEMBL1201862, “PubChem BioAssay data set” (2004)
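Where inhibition never reached the appropriate level, the endpoint shown equals the highest concentration tested. Otherwise, values were interpolated linearly from a five-concentration, 48-hour dose response in 96-well plates. At the GI50, growth is halved.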 The source made the active and inactive calls. Rule as the data show it: active = GI50 up to about 1.1 µM and inactive = higher.

What was measured:
Experiment in all cases: DTP human tumour cell line panel, 48 h
MDA-MB-231 = test system: MDA-MB-231
NCI-H522 = test system: NCI-H522
RPMI-8226 = test system: RPMI-8226
UO-31 = test system: UO-31
COLO 205 = test system: COLO 205
PC-3 = test system: PC-3
KM12 = test system: KM12
Malme-3M = test system: Malme-3M
SK-MEL-5 = test system: SK-MEL-5
HT-29 = test system: HT-29
SW-620 = test system: SW-620
RXF 393 = test system: RXF 393
HCC 2998 = test system: HCC 2998
OVCAR-8 = test system: OVCAR-8
OVCAR-5 = test system: OVCAR-5
SNB-19 = test system: SNB-19
HL-60 = test system: HL-60
SN12C = test system: SN12C
A498 = test system: A498

Row | SMILES | GI50 (MDA-MB-231) | GI50 (NCI-H522) | GI50 (RPMI-8226) | GI50 (UO-31) | GI50 (COLO 205) | GI50 (PC-3) | GI50 (KM12) | GI50 (Malme-3M) | GI50 (SK-MEL-5) | GI50 (HT-29) | GI50 (SW-620) | GI50 (RXF 393) | GI50 (HCC 2998) | GI50 (OVCAR-8) | GI50 (OVCAR-5) | GI50 (SNB-19) | GI50 (HL-60) | GI50 (SN12C) | GI50 (A498)
1 | O=C1C(Cl)=C(N2CCSCC2)C(=O)c2c(O)ccc(O)c21 | 0.308 µM (active) | 0.312 µM (active) | 0.1 µM (active) | 0.569 µM (active) | 0.1 µM (active) | 0.1 µM (active) | 0.38 µM (active) | 0.382 µM (active) | 0.451 µM (active) | 0.366 µM (active) | 0.258 µM (active) | 0.243 µM (active) |  |  |  |  |  |  | 
2 | O=C(NC1=C(Cl)C(=O)c2ccccc2C1=O)c1ccccc1 | 32.9 µM (inactive) | 23.9 µM (inactive) | 44.4 µM (inactive) |  | 15.5 µM (inactive) | 24.9 µM (inactive) | 32.1 µM (inactive) | 16.9 µM (inactive) | 27.5 µM (inactive) | 29.3 µM (inactive) | 17.3 µM (inactive) | 18.9 µM (inactive) | 46.5 µM (inactive) | 43.2 µM (inactive) | 47.1 µM (inactive) | 54.2 µM (inactive) | 34.8 µM (inactive) | 38.1 µM (inactive) | 
3 | COc1ccc(C(=O)c2cc(OC)c(OC)c(OC)c2)cc1OC | 6.17 µM (inactive) | 3.63 µM (inactive) | 7.53 µM (inactive) | 3.71 µM (inactive) | 4.04 µM (inactive) | 3.86 µM (inactive) | 0.815 µM (active) | 5.93 µM (inactive) | 4.44 µM (inactive) | 3.1 µM (inactive) | 3.52 µM (inactive) | 2.36 µM (inactive) | 2.81 µM (inactive) | 5.38 µM (inactive) | 14.6 µM (inactive) | 3.21 µM (inactive) | 2.67 µM (inactive) | 7.21 µM (inactive) | 
4 | Cc1ccc2nc3c(=O)[nH]c(=O)nc-3n(C)c2c1C | > 100 µM (inactive) | > 100 µM (inactive) | > 100 µM (inactive) | > 100 µM (inactive) | > 100 µM (inactive) | > 100 µM (inactive) | > 100 µM (inactive) | > 100 µM (inactive) | > 100 µM (inactive) | > 100 µM (inactive) | > 100 µM (inactive) | > 100 µM (inactive) | > 100 µM (inactive) | > 100 µM (inactive) | > 100 µM (inactive) | > 100 µM (inactive) | > 100 µM (inactive) | > 100 µM (inactive) | 
5 | NC(=O)CN1CCN(c2nc(N3CCCC3)c3nc(Cl)c(NCc4ccccc4)nc3n2)CC1 | 10.8 µM (inactive) | 10.4 µM (inactive) | 9.89 µM (inactive) | 10.7 µM (inactive) | 8.75 µM (inactive) | 11.8 µM (inactive) | 10.6 µM (inactive) | 8.65 µM (inactive) | 8.45 µM (inactive) | 9.48 µM (inactive) | 11.5 µM (inactive) | 7.96 µM (inactive) | 8.38 µM (inactive) | 15 µM (inactive) | 10.1 µM (inactive) | 9.89 µM (inactive) | 8.77 µM (inactive) | 9.48 µM (inactive) | 
6 | COc1ccc(/N=N/C(=N/NC(=O)c2cc(Cl)ccc2C(=O)c2ccccc2)c2ccc(N(CCC#N)CCC#N)cc2C)cc1 | 15.1 µM (inactive) |  | 9.35 µM (inactive) | 20.3 µM (inactive) | 17.6 µM (inactive) | 11.4 µM (inactive) | 21.4 µM (inactive) | 26.2 µM (inactive) | 15.5 µM (inactive) | 21.5 µM (inactive) | 22.3 µM (inactive) | 3.8 µM (inactive) | 18.9 µM (inactive) | 16.1 µM (inactive) | 18.2 µM (inactive) | 25.9 µM (inactive) |  | 14.6 µM (inactive) | 
7 | Nc1nc(Cl)cc(OCC2(CO)CCCCC2)n1 |  | 53.1 µM (inactive) | 60.5 µM (inactive) |  |  | > 100 µM (inactive) |  | > 100 µM (inactive) | 40.9 µM (inactive) | > 100 µM (inactive) | > 100 µM (inactive) | 63.7 µM (inactive) | 24.8 µM (inactive) | 96.6 µM (inactive) | > 100 µM (inactive) | > 100 µM (inactive) | 85.7 µM (inactive) | > 100 µM (inactive) | 40.7 µM (inactive)
8 | CC(C)(O)C1CC[C@]2(C)CC[C@]3(C)[C@H](CC[C@@H]4[C@@]5(C)CC[C@H](O)C(C)(C)[C@@H]5CC[C@]43C)[C@@H]12 (some centres undefined) | > 100 µM (inactive) | 29.1 µM (inactive) | 34.3 µM (inactive) | 58.2 µM (inactive) | 29.7 µM (inactive) | 30.3 µM (inactive) | 34.4 µM (inactive) | 28.6 µM (inactive) | 26 µM (inactive) | 35.8 µM (inactive) |  | 33.6 µM (inactive) | 26.8 µM (inactive) | 32.7 µM (inactive) | 32.5 µM (inactive) | 68.7 µM (inactive) | > 100 µM (inactive) | 81.3 µM (inactive) | 
9 | CN(Cc1cnc2nc(N)nc(N)c2n1)c1ccc(C(=O)N[C@@H](CCS(=O)(=O)O)C(=O)O)cc1 | > 100 µM (inactive) | 0.574 µM (active) |  | 0.698 µM (active) | > 100 µM (inactive) | 0.0459 µM (active) | 1.64 µM (inactive) |  | 0.541 µM (active) |  | 0.0824 µM (active) | 0.0611 µM (active) | 0.61 µM (active) | 21.8 µM (inactive) |  | 0.582 µM (active) |  | > 100 µM (inactive) | 
10 | CC(C)(Oc1ccccc1)C(=O)Sc1c(-c2ccccc2)c(=O)n(-c2ccccc2)c(=S)n1-c1ccccc1 | 28.8 µM (inactive) | 21.9 µM (inactive) |  | 65.3 µM (inactive) | 39.8 µM (inactive) |  | 31.8 µM (inactive) | 95.5 µM (inactive) |  | 50.9 µM (inactive) | 88.3 µM (inactive) | 26.4 µM (inactive) | 46.8 µM (inactive) | 18.6 µM (inactive) | 75.3 µM (inactive) | 47.2 µM (inactive) | 25.9 µM (inactive) | 51.3 µM (inactive) | 80.9 µM (inactive)
11 | CCOC(=O)C(NC(=O)NCc1ccc(F)cc1)C(F)(F)F (centres undefined) |  |  | > 100 µM (inactive) | > 100 µM (inactive) | > 100 µM (inactive) | > 100 µM (inactive) |  |  | > 100 µM (inactive) | > 100 µM (inactive) | > 100 µM (inactive) | > 100 µM (inactive) | > 100 µM (inactive) | > 100 µM (inactive) | > 100 µM (inactive) | > 100 µM (inactive) | > 100 µM (inactive) | > 100 µM (inactive) | > 100 µM (inactive)
12 | C/C(=N\O)c1ccc2cc(Br)c3ccccc3c2c1 | 15.3 µM (inactive) | 15.1 µM (inactive) | 17 µM (inactive) | 15.7 µM (inactive) |  |  | 15.6 µM (inactive) | 19.8 µM (inactive) | 16.8 µM (inactive) | 2.89 µM (inactive) | 23.1 µM (inactive) | 14.8 µM (inactive) | 14.6 µM (inactive) | 24.8 µM (inactive) | 11.5 µM (inactive) | 33.4 µM (inactive) | 20.7 µM (inactive) | 14.8 µM (inactive) | 17.7 µM (inactive)
13 | Cc1cnc2nc(-c3ccc4ccccc4c3)cc(O)c2c1 | 1.05 µM (active) | 0.321 µM (active) | 0.305 µM (active) | 0.847 µM (active) | 0.342 µM (active) |  | 0.444 µM (active) |  |  | 0.53 µM (active) | 0.359 µM (active) |  | 1.4 µM (inactive) | 0.685 µM (active) | 0.855 µM (active) | 0.908 µM (active) |  | 0.966 µM (active) | 0.421 µM (active)
14 | S=C(/N=c1\sc(Nc2ccc(Cl)cc2)nc2sc3c(c12)CCN(N1CCc2c(sc4nc(Nc5ccc(Cl)cc5)s/c(=N\C(=S)Nc5ccc(Cl)cc5)c24)C1)C3)Nc1ccc(Cl)cc1 | 18.6 µM (inactive) | 96.2 µM (inactive) |  | 62.1 µM (inactive) | 57.9 µM (inactive) | 30.3 µM (inactive) |  | > 100 µM (inactive) |  | 19 µM (inactive) | 38.8 µM (inactive) | 18.9 µM (inactive) |  | 43.1 µM (inactive) | 26.7 µM (inactive) | 55.2 µM (inactive) |  | 19.2 µM (inactive) | 
15 | O=S(=O)([N-]c1nc2ccccc2nc1-[n+]1ccccc1)c1ccccc1 | 28.9 µM (inactive) | > 100 µM (inactive) | 74 µM (inactive) | > 100 µM (inactive) | > 100 µM (inactive) | > 100 µM (inactive) | > 100 µM (inactive) | > 100 µM (inactive) | > 100 µM (inactive) | > 100 µM (inactive) |  | > 100 µM (inactive) | > 100 µM (inactive) | 68.5 µM (inactive) | > 100 µM (inactive) | > 100 µM (inactive) | 22.1 µM (inactive) | > 100 µM (inactive) | 
16 | O/N=C1/CCCCCC1NO (centres undefined) | > 100 µM (inactive) |  | > 100 µM (inactive) | > 100 µM (inactive) | > 100 µM (inactive) | > 100 µM (inactive) | > 100 µM (inactive) | > 100 µM (inactive) | > 100 µM (inactive) | > 100 µM (inactive) | > 100 µM (inactive) | > 100 µM (inactive) | > 100 µM (inactive) | > 100 µM (inactive) | > 100 µM (inactive) | > 100 µM (inactive) |  | > 100 µM (inactive) | 
17 | COC(=O)C(CC(=O)Nc1ccc(Cl)c(Cl)c1)C(=O)C(=O)NC1C2CC3CC(C2)CC1C3 (centres undefined) |  | > 100 µM (inactive) | > 100 µM (inactive) | > 100 µM (inactive) | > 100 µM (inactive) |  | > 100 µM (inactive) | > 100 µM (inactive) | > 100 µM (inactive) | > 100 µM (inactive) | > 100 µM (inactive) | > 100 µM (inactive) | > 100 µM (inactive) | > 100 µM (inactive) | > 100 µM (inactive) | > 100 µM (inactive) | > 100 µM (inactive) | > 100 µM (inactive) | > 100 µM (inactive)
